A short description of the series: Determination of hydrotrope utility (polarized light microscopy and rheology of compound/water/monoolein compositions). In kind it is physicochemical. Particulars: for Formation of cubic phase in equilibrium with liquid water: system of compound, monoolein and water. An excerpt: Whether a compound is suitable to use as ingredient (A) can be determined by one skilled in the art without undue experimentation. The determination can be made by preparing a composition comprising the compound to be tested for use as the hydrotrope, the selected amphiphile, and the selected solvent and allowing the composition to equilibrate, for example, by the method described below in Reference Example 1. If the composition forms a cubic phase or cubic phase in combination with another phase, then the hydrotrope is suitable to use in this invention. If the composition forms a cubic phase or cubic phase in combination with an isotropic liquid, then the hydrotrope is preferred.
Polarized light microscopy (PLM) can be used to determine whether the composition formed cubic phase. PLM can be carried out on a polarized light microscope or constructed light box, as described by Laughlin, R. G., J. Colloid Interface Sci., 55, 239-242 (1976). Polarized light microscope textures define the phase/colloidal state of sample. Lamellar and hexagonal phases give birefringence (see Hecht, E., Optics, 2nd ed., Addison-Wesley Publishing Co., Reading, Mass., pp. 282-289 (1984)) and distinct textures such as Maltese Crosses (see Rosevear, F. B., J. Am. Oil Chemists Soc., 31, 628-638 (1954)). This is a consequence of the anisotropic phase structure of these particular phases, and their orientation relative to polarization of the light. However, L1, L2, L3, and cubic phases show no birefringence and appear dark in the microscope. Birefringence is a function of sample thickness, so sometimes it is difficult to see with a light microscope. Instead, the bulk sample can be placed in the aforementioned light box to secure a very thick sample.
Cubic phases are very viscous while the other phases are (i.e., L1, L2, and L3) are less viscous, like water. Therefore, lack of birefringence in combination with bulk solid-like rheological properties indicates the presence of cubic phase.
A compound for use as a hydrotrope is dissolved in water in amounts to form a hydrotrope solution. The solution is added to monoolein (DIMODAN® MO90K) to yield a composition. The composition is left to equilibrate overnight at a temperature of 25 to 30° C.
PLM can be carried out on a polarized light microscope or constructed light box, as described by Laughlin, R. G., J. Colloid Interface Sci., 55, 239-242 (1976). Rheological properties of the composition are also observed.
Various compounds are evaluated according to Reference Example 1. The compounds, the compositions prepared, and the results are in Table E1, below. FIG. 4 is a ternary diagram 400 showing the data points in Example 3. FIG. 5 is a ternary diagram 500 for 1,2-hexanediol 516, monoolein 517, and water 518. […] FIG. 6 is a ternary diagram 600 for 1,2-hexanediol 613, monoolein 614, and water 615. […] FIG. 7 is a ternary diagram 700 for ethanol 713, monoolein 714, and water 715.

[1] abbreviates: system with monoolein and water.
The mark [2] stands for this setting: compound 10, water 80, amphiphile (monoolein) 10 (κ).

Entries after “also recorded” stand apart in the source; their conditions may differ.

Regarding `CCCCC(O)CO` (stereo not shown) [1,2-hexanediol], the “Formation of cubic phase in equilibrium with liquid water” value is “does not form cubic phase in equilibrium with liquid water”. In addition, for the setting “FIG. 5 point 501, compound 10, water 81, amphiphile (monoolein) 9 (κ)”, the “Phase(s) Formed” value is “liquid water and L1”. The “Phase(s) Formed” value (FIG. 5 point 502, compound 10, water 71, amphiphile (monoolein) 19 (κ)) is “L1 and lamellar”. Under “FIG. 5 point 503, compound 10, water 64, amphiphile (monoolein) 26 (κ)”, the “Phase(s) Formed” value was “L1 and lamellar”. Also, the “Phase(s) Formed” value (FIG. 5 point 504, compound 12, water 53, amphiphile (monoolein) 35 (κ)) is “L1 and lamellar”. In addition, the “Phase(s) Formed” value (FIG. 5 point 505, compound 10, water 45, amphiphile (monoolein) 45 (κ)) was “L1 and lamellar”. For the setting “FIG. 5 point 510, compound 20, water 40, amphiphile (monoolein) 40 (κ)”, the “Phase(s) Formed” value is “L1 and lamellar”. For the same compound, the “Phase(s) Formed” value (FIG. 6 point 601, compound 6, water 56, amphiphile (monoolein) 38 (κ)) is “cubic and lamellar”. Moreover, where the note is “FIG. 6 point 602, compound 4, water 58, amphiphile (monoolein) 38 (κ)”, the “Phase(s) Formed” value is “cubic and lamellar”. In addition, the “Phase(s) Formed” value (FIG. 6 point 603, compound 2, water 59, amphiphile (monoolein) 39 (κ)) is “cubic and lamellar”. Also, under “FIG. 6 point 604, compound 6, water 38, amphiphile (monoolein) 56 (κ)”, the “Phase(s) Formed” value was “cubic and lamellar”. Further, the “Phase(s) Formed” value (FIG. 6 point 605, compound 4, water 39, amphiphile (monoolein) 57 (κ)) was “cubic and lamellar”. The “Phase(s) Formed” value (FIG. 6 point 606, compound 2, water 39, amphiphile (monoolein) 59 (κ)) is “cubic and lamellar”. Besides, the “Phase(s) Formed” value (FIG. 6 point 607, compound 6, water 28, amphiphile (monoolein) 66 (κ)) was “cubic and lamellar”. In addition, the “Phase(s) Formed” value (FIG. 6 point 608, compound 2, water 29, amphiphile (monoolein) 69 (κ)) is “cubic and lamellar”. Further, under “FIG. 6 point 609, compound 16, water 13, amphiphile (monoolein) 71 (κ)”, the “Phase(s) Formed” value is “lamellar”. In addition, the “Phase(s) Formed” value (FIG. 6 point 610, compound 10, water 14, amphiphile (monoolein) 76 (κ)) is “lamellar”. Moreover, for the setting “FIG. 6 point 611, compound 5, water 14, amphiphile (monoolein) 81 (κ)”, the “Phase(s) Formed” value is listed as “lamellar”. Also, the “Phase(s) Formed” value (FIG. 6 point 612, compound 5, water 12, amphiphile (monoolein) 83 (κ)) was “lamellar”. For the same compound, the Suitability as hydrotrope result under setting [1] is “suitable to use as a hydrotrope”.
Regarding `OCCCCO` [1,4-butanediol], the “Phase(s) Formed” value under setting [2] was “cubic and L1”. In addition, the Suitability as hydrotrope entry under setting [1] is “effective as hydrotropes”.
With `CC(C)O` [Example 2-propanol, 2-propanol], under setting [2], the “Phase(s) Formed” value is “does not form cubic phase; also recorded: Turbid solution and L1”. Moreover, the Suitability as hydrotrope entry under setting [1] is on record as “not preferred to use as a hydrotrope”.
For `CCN(CC)CCOC(=O)c1ccc(N)cc1.Cl` [procaine hydrogen chloride, reference compound], the “Phase(s) Formed” value under setting [2] was “cubic and L1”. Further, the Suitability as hydrotrope result under setting [1] is on record as “effective as hydrotropes”.
Turning to `CCO` [ethanol], the “Formation of cubic phase in equilibrium with liquid water” value was “can be formed”. In addition, the “Phase(s) Formed” value (FIG. 4 point 401, compound 20, water 48, amphiphile (monoolein) 32 (κ)) is “L1 and lamellar”. Besides, the “Phase(s) Formed” value (FIG. 4 point 404, compound 9, water 55, amphiphile (monoolein) 36 (κ)) was “cubic and lamellar”. Besides, the “Phase(s) Formed” value (FIG. 4 point 405, compound 6, water 56, amphiphile (monoolein) 38 (κ)) was “cubic and lamellar”. Moreover, the “Phase(s) Formed” value (FIG. 7 point 701, compound 11, water 88, amphiphile (monoolein) 1 (κ)) is on record as “cubic & isotropic liquid”. Also, the “Phase(s) Formed” value (FIG. 7 point 702, compound 10, water 70, amphiphile (monoolein) 20 (κ)) is “cubic & isotropic liquid”. The “Phase(s) Formed” value (FIG. 7 point 703, compound 10, water 59, amphiphile (monoolein) 31 (κ)) is on record as “cubic & isotropic liquid”. Also, the “Phase(s) Formed” value (FIG. 7 point 704, compound 10, water 48, amphiphile (monoolein) 42 (κ)) is “cubic & isotropic liquid”. For the same compound, the “Phase(s) Formed” value (FIG. 7 point 706, compound 20, water 55, amphiphile (monoolein) 25 (κ)) is “L1 and lamellar”. For the same compound, the “Phase(s) Formed” value (FIG. 7 point 707, compound 19, water 49, amphiphile (monoolein) 32 (κ)) was “L1 and lamellar”. Under “FIG. 7 point 708, compound 20, water 42, amphiphile (monoolein) 39 (κ)”, the “Phase(s) Formed” value is recorded as “lamellar”. Also, where the note is “FIG. 7 point 709, compound 29, water 60, amphiphile (monoolein) 11 (κ)”, the “Phase(s) Formed” value was “L1 and lamellar”. For the setting “FIG. 7 point 710, compound 28, water 52, amphiphile (monoolein) 20 (κ)”, the “Phase(s) Formed” value was “L1 and lamellar”. In addition, for the setting “FIG. 7 point 711, compound 30, water 40, amphiphile (monoolein) 30 (κ)”, the “Phase(s) Formed” value was “lamellar”. Besides, where the note is “FIG. 7 point 712, compound 30, water 29, amphiphile (monoolein) 41 (κ)”, the “Phase(s) Formed” value is on record as “lamellar”. The Suitability as hydrotrope result under setting [1] is listed as “preferred hydrotrope”. The “Amount of compound at which it can be used as a hydrotrope” value (system with monoolein and water, % of the system) is on record as “less than or equal to 10%”.

(Values after patent US6773627B2, “Cubic liquid crystalline compositions and methods for their preparation” (Children's Hospital Research Foundation, priority 2000, dated 2004).)
